Literature values, collected in patent publication US20080009496A1, “MUTAGENIC HETEROCYCLES” (Koronis Pharmaceuticals, Inc., priority 2003, published 2008).

Key:
[1] = test system: HIV; details: in vitro
[2] = deamination product of 5-aza-dC

| Structure (SMILES) | inhibition of HIV replication [1] | antineoplastic activity [2] |
| --- | --- | --- |
| Nc1ncn([C@H]2C[C@H](O)[C@@H](CO)O2)c(=O)n1 [5-aza-dC, 5-aza-2′-deoxycytidine] | inhibit HIV replication in vitro | – |
| O=c1ncn([C@H]2C[C@H](O)[C@@H](CO)O2)c(=O)[nH]1 [5-aza-dU, 5-aza-2′-deoxyuridine] | – | loss of antineoplastic activity |
